Measurements published in patent publication US20040132731A1, “Novel combination” (priority 2002, published 2004).

Test system: spontaneously hypertensive rat (SHR)
Experiment: Animal study: change in mean arterial pressure in anaesthetised spontaneously hypertensive rats
Format: in vivo
Conditions: anaesthetised male SHR; for Change in mean arterial pressure from vehicle: n=6/group, infusion at 0.5 mL/h, candesartan 0.02 μg/kg/min, PDE5 inhibitor 15.61 μg/kg/min, combination 15.61 μg/kg/min+0.02 μg/kg/min; for fall in MAP: text restatement of the table, combination vs sum of the two individual effects p=0.058
Procedure: The spontaneously hypertensive rat (SHR) is a widely used model of human hypertension. Anaesthetised male SHRs (250-450 g) were surgically prepared for the measurement of systolic, diastolic and mean arterial pressure. Cannulae were inserted into the jugular veins and carotid artery. The trachea was also cannulated to facilitate respiration. Following a 60 min post-surgical stabilisation period, arterial blood pressure and heart rate were recorded via a pressure transducer and PoNeMah data acquisition system.
Solutions of candesartan (0.02, μg/kg/min), PDE5 inhibitor (15.61 μg/kg/min) and a combination of PDE5 inhibitor and candesartan (15.61 μg/kg/min+0.02, μg/kg/min) were infused as appropriate at a rate of 0.5 mL/h. Control animals received compound vehicle (5% DMSO, 10% PEG200, 85% water for injection (v/v)).
Baseline haemodynamic parameters were recorded. Animals (n=6/group) were randomised to receive a primed infusion of either vehicle or PDE5 Inhibitor for a period of 60 min. At this point, these groups were further randomised to receive either (i) vehicle or PDE5 inhibitor alone, (ii) candesartan alone or (iii) a combination of candesartan and PDE5 inhibitor. Changes in mean arterial pressure were monitored during the study period.

| SMILES | Change in mean arterial pressure from vehicle [mmHg] | fall in MAP [mmHg] |
| --- | --- | --- |
| CCOc1nc2cccc(C(=O)O)c2n1Cc1ccc(-c2ccccc2-c2nnn[nH]2)cc1 [candesartan] | −3.2 | 3.2 |
| CCc1c2nc(-c3cc(S(=O)(=O)N4CCN(CC)CC4)cnc3OCCOC)[nH]c(=O)c2nn1Cc1ccccn1 [PDE5 inhibitor, 3-ethyl-5-[5-(4-ethylpiperazin-1-ylsulphonyl)-2-(2-methoxyethoxy)pyridin-3-yl]-2 (pyridin-2-yl)methyl-2,6-dihydro-7H-pyrazolo[4,3-d]pyrimidin-7-one] | −7.4 | 7.4 |
